# Reference: patent US20020137929A1, “1 - (3-heterocyclylphenyl) isothiourea, -isourea, -guanidine and -amidine herbicidal agents” (Intellectual Property Department, BASF Aktiengesellschaft, priority 1998, published 2002)
# Legend:
# MOOVA (Monochoria) [1] = assay: Postemergence weed control under flooded paddy conditions; format: in vivo, Monochoria vaginalis; conditions: postemergence weeds, 3-4 weeks after treatment
# Source text: (§1) Results of herbicide evaluation are expressed on a rating scale (0-9). The scale is based upon a visual observation of plant stand, vigor, malformation, size, chlorosis and overall plant appearance as compared with a control.
# (§2) Plastic containers containing weeds which are 3 to 5 cm tall and rice seedlings at the 1.5 to 2.5 leaf stage are flooded with water. The water is maintained at 1.5 to 3 cm above the soil surface for the duration of the experiment. Test compounds are applied as aqueous/ acetone mixtures 50/50 v/v directly into the flood water to provide the equivalent of about 0.0313 to 0.500 kg/ha of active ingredient. The treated containers are placed on greenhouse benches and cared for in accordance with conventional greenhouse procedures. Three to four weeks after treatment, the test is terminated and each container is examined and herbicidal effect rated according to the rating system provided in Example 37. The compounds evaluated are reported by compound number given in Example 37.
# [2] = system: SAGPY (Arrowhead (Pygmaea)); assay: as above; format: in vivo, Sagittaria pygmaea; conditions: postemergence weeds, 3-4 weeks after treatment
# Source text: as §1, §2
# CYPIR (Rice Flatsedge) [3] = assay: as above; format: in vivo, Cyperus iria; conditions: postemergence weeds, 3-4 weeks after treatment
# Source text: as §1, §2
# CASOB (Sicklepod) = assay: Postemergence herbicidal evaluation; format: in vivo, Cassia obtusifolia
# Procedure: (§3) In the tests, seedling plants are grown in jiffy flats for about two weeks. The test compounds are dispersed in 50/50 acetone/water mixtures containing 0.5% TWEEN®20, a polyoxyethylene sorbitan monolaurate surfactant of Atlas Chemical Industries, in sufficient quantities to provide the equivalent of about 0.0156 kg to 0.500 kg per hectare of active compound when applied to the plants through a spray nozzle operating at 40 psi for a predetermined time. After spraying, the plants are placed on greenhouse benches and are cared for in accordance with conventional greenhouse procedures. From four to five weeks after treatment, the seedling plants are examined and rated according to the rating system set forth below. Where more than one test is involved for a given compound, the data are averaged.
# (§4) Plant species employed in these evaluations are reported by header abbreviation, common name and scientific name.
# as §1
# SETVI (Foxtail, Green) = assay: Postemergence herbicidal evaluation; format: in vivo, Setaria viridis
# Procedure: as §3, §4, §1
# [4] = system: GLXMAW (Soybean, Williams); assay: Postemergence herbicidal evaluation; format: in vivo, Glycine max, (L.) Merr. cv Williams
# Procedure: as §3, §4, §1
# AMBEL (Ragweed, Common) = assay: Postemergence herbicidal evaluation; format: in vivo, Ambrosia artemisifolia
# Procedure: as §3, §4, §1
# [5] = system: SAGPY (Arrowhead (Pygmaea)); assay: Preemergence weed control under flooded paddy conditions; format: in vivo, Sagittaria pygmaea; conditions: rated 3-4 weeks after treatment
# Procedure: as §1
# (§5) Preemergence herbicidal activity under flooded paddy conditions is determined as follows: plant seeds or propagating organs are planted in the top 0.5 cm of silt loam soil in 32 oz. plastic containers with a diameter of 10.5 cm and no drainage holes. Water is added to these containers and maintained at 1.5 to 3 cm above the soil surface for the duration of the experiment. The test compounds are applied as aqueous/acetone mixtures 50/50 v/v pipetted directly into the flood water to give the equivalent of about 0.0313 to 0.500 kg/ha of active ingredient. The treated containers are placed on greenhouse benches and cared for in accordance with conventional greenhouse procedures. Three to four weeks after treatment, the test is terminated and each container is examined and herbicidal effect rated according to the rating system provided in Example 37. The compounds evaluated are reported by compound number given in Example 37.
# (§6) Plant species employed in this example are reported by header abbreviation, common name and scientific name.
# ECHCG (Barnyardgrass) = assay: Postemergence herbicidal evaluation; format: in vivo, Echinochloa crus-galli
# Procedure: as §3, §4, §1
# ZEAMX (Corn, Field) = assay: Postemergence herbicidal evaluation; format: in vivo, Zea mays
# Procedure: as §3, §4, §1
# ORYSAT (Rice, Tebonnet) = assay: Postemergence herbicidal evaluation; format: in vivo, Oryza sativa, (L.) Tebonnet
# Procedure: as §3, §4, §1
# MOOVA (Monochoria) [6] = assay: Preemergence weed control under flooded paddy conditions; format: in vivo, Monochoria vaginalis; conditions: rated 3-4 weeks after treatment
# Procedure: as §1, §5, §6
# ABUTH (Velvetleaf) = assay: Postemergence herbicidal evaluation; format: in vivo, Abutilon theophrasti
# Procedure: as §3, §4, §1
# [7] = system: ECHORC (Watergrass (Calif.)); assay: Preemergence weed control under flooded paddy conditions; format: in vivo, Echinochloa oryzoides; conditions: rated 3-4 weeks after treatment
# Procedure: as §1, §5, §6
# CYPSE (Flatsedge) [8] = assay: as above; format: in vivo, Cyperus serotinus; conditions: rated 3-4 weeks after treatment
# Procedure: as §1, §5, §6
# [9] = system: CHEAL (Lambsquarters, Common); assay: Postemergence herbicidal evaluation; format: in vivo, Chenopodium album
# Procedure: as §3, §4, §1
# [10] = system: IPOHE (Morningglory, Ivyleaf); assay: Postemergence herbicidal evaluation; format: in vivo, Ipomoea hederacea
# Procedure: as §3, §4, §1
# CYPIR (Rice Flatsedge) [11] = assay: Preemergence weed control under flooded paddy conditions; format: in vivo, Cyperus iria; conditions: rated 3-4 weeks after treatment
# Procedure: as §1, §5, §6
# [12] = system: TRZAWR (Wheat, Winter, cv Riband); assay: Postemergence herbicidal evaluation; format: in vivo, Triticum aestivum
# Procedure: as §3, §4, §1
# GALAP (Galium) = assay: Postemergence herbicidal evaluation; format: in vivo, Galium aparine
# Procedure: as §3, §4, §1
# CYPSE (Flatsedge) [13] = assay: Postemergence weed control under flooded paddy conditions; format: in vivo, Cyperus serotinus; conditions: postemergence weeds, 3-4 weeks after treatment
# Source text: as §1, §2
# [14] = system: ECHORC (Watergrass (Calif.)); assay: as above; format: in vivo, Echinochloa oryzoides; conditions: postemergence weeds, 3-4 weeks after treatment
# Source text: as §1, §2
smiles,measurement,setting,value
"CCOC(=O)CN1C(=O)C(CC(N)=O)S/C1=N/c1cc(-n2c(=O)cc(C(F)(F)F)n(C)c2=O)c(F)cc1Cl (stereo not shown) [Compound 56, Ethyl 5-(carbamoylmethyl)-2-{{2-chloro-5-[3,6-dihydro-3-methyl-2,6-dioxo-4-(trifluoromethyl)-1(2H)-pyrimidinyl]-4-fluorophenyl}imino}-4-oxo-3-thiazolidineacetate]",Herbicidal rating MOOVA,MOOVA (Monochoria) [1]; rate 0.0313 kg/ha,6.0
same,Herbicidal rating MOOVA,MOOVA (Monochoria) [1]; rate 0.0625 kg/ha,6.0
same,Herbicidal rating MOOVA,MOOVA (Monochoria) [1]; rate 0.1250 kg/ha,9.0
same,Herbicidal rating MOOVA,MOOVA (Monochoria) [1]; rate 0.2500 kg/ha,9.0
same,Herbicidal rating SAGPY,[2]; rate 0.0313 kg/ha,0.0
same,Herbicidal rating SAGPY,[2]; rate 0.0625 kg/ha,0.0
same,Herbicidal rating SAGPY,[2]; rate 0.1250 kg/ha,0.0
same,Herbicidal rating SAGPY,[2]; rate 0.2500 kg/ha,0.0
same,Herbicidal rating CYPIR,CYPIR (Rice Flatsedge) [3]; rate 0.0313 kg/ha,0.0
same,Herbicidal rating CYPIR,CYPIR (Rice Flatsedge) [3]; rate 0.0625 kg/ha,0.0
same,Herbicidal rating CYPIR,CYPIR (Rice Flatsedge) [3]; rate 0.1250 kg/ha,0.0
same,Herbicidal rating CYPIR,CYPIR (Rice Flatsedge) [3]; rate 0.2500 kg/ha,0.0
same,Postemergence herbicidal rating CASOB,CASOB (Sicklepod); Rate 0.0158 kg/ha,4.0
same,Postemergence herbicidal rating CASOB,CASOB (Sicklepod); Rate 0.0315 kg/ha,4.0
same,Postemergence herbicidal rating CASOB,CASOB (Sicklepod); Rate 0.0630 kg/ha,9.0
same,Postemergence herbicidal rating SETVI,"SETVI (Foxtail, Green); Rate 0.0158 kg/ha",6.0
same,Postemergence herbicidal rating SETVI,"SETVI (Foxtail, Green); Rate 0.0315 kg/ha",6.0
same,Postemergence herbicidal rating SETVI,"SETVI (Foxtail, Green); Rate 0.0630 kg/ha",7.0
same,Postemergence herbicidal rating GLXMAW,[4]; Rate 0.0158 kg/ha,7.0
same,Postemergence herbicidal rating GLXMAW,[4]; Rate 0.0315 kg/ha,7.5
same,Postemergence herbicidal rating GLXMAW,[4]; Rate 0.0630 kg/ha,8.0
same,Postemergence herbicidal rating AMBEL,"AMBEL (Ragweed, Common); Rate 0.0158 kg/ha",9.0
same,Postemergence herbicidal rating AMBEL,"AMBEL (Ragweed, Common); Rate 0.0315 kg/ha",9.0
same,Postemergence herbicidal rating AMBEL,"AMBEL (Ragweed, Common); Rate 0.0630 kg/ha",9.0
same,Herbicidal rating SAGPY,[5]; 0.0313 kg/ha,0.0
same,Herbicidal rating SAGPY,[5]; 0.0625 kg/ha,0.0
same,Herbicidal rating SAGPY,[5]; 0.1250 kg/ha,0.0
same,Herbicidal rating SAGPY,[5]; 0.2500 kg/ha,0.0
same,Postemergence herbicidal rating ECHCG,ECHCG (Barnyardgrass); Rate 0.0158 kg/ha,2.0
same,Postemergence herbicidal rating ECHCG,ECHCG (Barnyardgrass); Rate 0.0315 kg/ha,2.0
same,Postemergence herbicidal rating ECHCG,ECHCG (Barnyardgrass); Rate 0.0630 kg/ha,3.0
same,Postemergence herbicidal rating ZEAMX,"ZEAMX (Corn, Field); Rate 0.0158 kg/ha",5.0
same,Postemergence herbicidal rating ZEAMX,"ZEAMX (Corn, Field); Rate 0.0315 kg/ha",5.5
same,Postemergence herbicidal rating ZEAMX,"ZEAMX (Corn, Field); Rate 0.0630 kg/ha",6.5
same,Postemergence herbicidal rating ORYSAT,"ORYSAT (Rice, Tebonnet); Rate 0.0158 kg/ha",1.5
same,Postemergence herbicidal rating ORYSAT,"ORYSAT (Rice, Tebonnet); Rate 0.0315 kg/ha",2.0
same,Postemergence herbicidal rating ORYSAT,"ORYSAT (Rice, Tebonnet); Rate 0.0630 kg/ha",2.5
same,Herbicidal rating MOOVA,MOOVA (Monochoria) [6]; 0.0313 kg/ha,6.0
same,Herbicidal rating MOOVA,MOOVA (Monochoria) [6]; 0.0625 kg/ha,6.0
same,Herbicidal rating MOOVA,MOOVA (Monochoria) [6]; 0.1250 kg/ha,9.0
same,Herbicidal rating MOOVA,MOOVA (Monochoria) [6]; 0.2500 kg/ha,9.0
same,Postemergence herbicidal rating ABUTH,ABUTH (Velvetleaf); Rate 0.0158 kg/ha,9.0
same,Postemergence herbicidal rating ABUTH,ABUTH (Velvetleaf); Rate 0.0315 kg/ha,9.0
same,Postemergence herbicidal rating ABUTH,ABUTH (Velvetleaf); Rate 0.0630 kg/ha,9.0
same,Herbicidal rating ECHORC,[7]; 0.0313 kg/ha,0.0
same,Herbicidal rating ECHORC,[7]; 0.0625 kg/ha,0.0
same,Herbicidal rating ECHORC,[7]; 0.1250 kg/ha,3.0
same,Herbicidal rating ECHORC,[7]; 0.2500 kg/ha,5.0
same,Herbicidal rating CYPSE,CYPSE (Flatsedge) [8]; 0.0313 kg/ha,0.0
same,Herbicidal rating CYPSE,CYPSE (Flatsedge) [8]; 0.0625 kg/ha,0.0
same,Herbicidal rating CYPSE,CYPSE (Flatsedge) [8]; 0.1250 kg/ha,0.0
same,Herbicidal rating CYPSE,CYPSE (Flatsedge) [8]; 0.2500 kg/ha,0.0
same,Postemergence herbicidal rating CHEAL,[9]; Rate 0.0158 kg/ha,9.0
same,Postemergence herbicidal rating CHEAL,[9]; Rate 0.0315 kg/ha,9.0
same,Postemergence herbicidal rating CHEAL,[9]; Rate 0.0630 kg/ha,9.0
same,Postemergence herbicidal rating IPOHE,[10]; Rate 0.0158 kg/ha,9.0
same,Postemergence herbicidal rating IPOHE,[10]; Rate 0.0315 kg/ha,9.0
same,Postemergence herbicidal rating IPOHE,[10]; Rate 0.0630 kg/ha,9.0
same,Herbicidal rating CYPIR,CYPIR (Rice Flatsedge) [11]; 0.0313 kg/ha,0.0
same,Herbicidal rating CYPIR,CYPIR (Rice Flatsedge) [11]; 0.0625 kg/ha,0.0
same,Herbicidal rating CYPIR,CYPIR (Rice Flatsedge) [11]; 0.1250 kg/ha,0.0
same,Herbicidal rating CYPIR,CYPIR (Rice Flatsedge) [11]; 0.2500 kg/ha,0.0
same,Postemergence herbicidal rating TRZAWR,[12]; Rate 0.0158 kg/ha,4.0
same,Postemergence herbicidal rating TRZAWR,[12]; Rate 0.0315 kg/ha,4.5
same,Postemergence herbicidal rating TRZAWR,[12]; Rate 0.0630 kg/ha,5.0
same,Postemergence herbicidal rating GALAP,GALAP (Galium); Rate 0.0158 kg/ha,3.0
same,Postemergence herbicidal rating GALAP,GALAP (Galium); Rate 0.0315 kg/ha,6.0
same,Postemergence herbicidal rating GALAP,GALAP (Galium); Rate 0.0630 kg/ha,9.0
same,Herbicidal rating CYPSE,CYPSE (Flatsedge) [13]; rate 0.0313 kg/ha,0.0
same,Herbicidal rating CYPSE,CYPSE (Flatsedge) [13]; rate 0.0625 kg/ha,0.0
same,Herbicidal rating CYPSE,CYPSE (Flatsedge) [13]; rate 0.1250 kg/ha,0.0
same,Herbicidal rating CYPSE,CYPSE (Flatsedge) [13]; rate 0.2500 kg/ha,0.0
same,Herbicidal rating ECHORC,[14]; rate 0.0313 kg/ha,0.0
same,Herbicidal rating ECHORC,[14]; rate 0.0625 kg/ha,0.0
same,Herbicidal rating ECHORC,[14]; rate 0.1250 kg/ha,3.0
same,Herbicidal rating ECHORC,[14]; rate 0.2500 kg/ha,5.0
